Laboratory results reported in patent publication US20190169140A1, “IDO1 INHIBITOR AND PREPARATION METHOD AND APPLICATION THEREOF” (SHANDONG LUYE PHARMACEUTICAL CO., LTD., priority 2016, published 2019).

Tests used:
[1] = target: T1, recombinant human IDO1 enzyme (Homo sapiens, UniProt P14902); assay: Test of hIDO1 for enzymatic activity in vitro (NFK Green fluorescence); format: biochemical
T1 construct: purchased NTRC (Netherlands Translational Research Center) NTRC-hIDO-10K
Experimental: 1. Test of hIDO1 for Enzymatic Activity In Vitro
1.1 Purpose of Experiment:
Changes in production of NFK, an IDO1 enzymatic metabolite were detected with NFK Green™ fluorescent molecules. With an IC50 value of a compound as an index, an inhibitory effect of the compound on recombinant human IDO1 enzyme was evaluated.
The compound was diluted with dimethyl sulfoxide (DMSO) to 1 mM, with 10 gradients, each 3-fold dilution, in duplicate. 48 μL of 50 mM phosphate buffer, having pH of 6.5, was transferred by the Bravo automatic liquid processing platform to the compound plate. Then 2 μL of an already diluted compound/DMSO solution was added. After even mixing, 10 μL of the resultant mixture was transferred to the enzymatic reaction plate.
IDO1 enzyme was diluted to 20 nM in a reaction buffer (50 mM phosphate buffer with pH of 6.5, 0.1% of Tween-20, 2% of glycerol, 20 mM ascorbic acid, 20 μg/ml catalase, and 20 μM methylene blue), 20 μL of the diluted IDO1 enzyme was transferred to the enzymatic reaction plate, and incubated at 23° C. for 30 minutes. 10 μL of 400 μM L-type tryptophan substrate was added to start reaction. The incubation lasted at 23° C. for 90 minutes. 10 μL of NFK Green™ fluorescent dye was added. The resultant mixture was sealed with the plate sealing film. After incubation at 37° C. for 4 hours, an Envision multi-functional plate reader was used for reading (Ex 400 nm/Em 510 nm).
A reference well to which the IDO1 enzyme was added but no compound was added was set to have an inhibition rate of 0%, and a reference well to which no IDO1 enzyme was added was set to have an inhibition rate of 100%. Data was analyzed with XLFit 5 to calculate an IC50 value of the compound.

[2] = target: T2, IDO1 enzyme in Hela cells (Homo sapiens, UniProt P14902); assay: Test of hIDO1 for cytological activity (Hela cell kynurenine by LCMS, interferon-γ induced); format: cell-based; conditions: interferon-γ 100 ng/ml, 20 hours
T2 construct: endogenous in cells; host or cells: Hela cells, induced with recombinant human interferon-γ
T2 sequence (P14902 whole entry): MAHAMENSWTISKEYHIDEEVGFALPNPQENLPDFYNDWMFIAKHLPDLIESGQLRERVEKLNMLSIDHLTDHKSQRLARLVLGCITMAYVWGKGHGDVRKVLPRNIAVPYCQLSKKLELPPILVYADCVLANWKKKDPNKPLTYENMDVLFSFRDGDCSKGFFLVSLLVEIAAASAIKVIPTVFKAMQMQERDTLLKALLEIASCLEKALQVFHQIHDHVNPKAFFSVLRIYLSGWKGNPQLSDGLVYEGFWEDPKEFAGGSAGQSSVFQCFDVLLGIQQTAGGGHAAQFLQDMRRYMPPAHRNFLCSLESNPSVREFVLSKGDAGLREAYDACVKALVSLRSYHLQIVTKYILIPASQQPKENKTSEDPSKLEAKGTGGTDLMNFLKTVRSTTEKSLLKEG
Experimental: 2. Test of hIDO1 for Cytological Activity
Changes in Hela cell kynurenine were detected by an LCMS method. With an IC50 value of a compound as an index, an inhibitory effect of the compound on IDO1 enzyme was evaluated.
The culture medium, trypsin, and DPBS were preheated in water bath at 37° C. The culture medium was removed by sucking from cell culture, followed by cleaning the cell culture with 10 mL of DPBS; the preheated trypsin was added to the culture flask, which was revolved to make the culture flask covered by trypsin uniformly, and placed into an incubator at 37° C. with 5% CO2 for digestion for 1-2 minutes; 10-15 mL of the culture medium was used to suspend cells each T150, followed by centrifugation at 800 rpm for 5 minutes. 10 mL of the culture medium was used to resuspend the cells. 1 mL of the cell resuspension was pipetted, and counted with Vi-cell; the Hela cells were diluted to 5×10^5/mL with the culture medium, 80 μL of the diluted Hela cells were added to the 96-well cell plate, and incubated in the an incubator at 37° C. with 5% CO2 for 5-6 hours.
The compound was diluted with DMSO to 1 mM, with 9 gradients, each 3-fold dilution, in duplicate. 5 μL of the already diluted compound DMSO solution was added to the compound plate containing 95 μL of the culture medium. After even mixing, 10 μL of the mixture was transferred to the cell plate.
10 μL of recombinant human interferon-γ was added to result in a final concentration of 100 ng/ml, to induce expression of IDO1. Incubation was carried out in the 5% CO2 incubator at 37° C. for 20 hours. 4 μL of 5% (w/v) trichloroacetic acid was added, followed by even mixing and incubation at 50° C. for 30 minutes. After centrifugation at 2400 rpm for 10 minutes, 40 μL of a supernatant was added to a 96-well V-bottom plate, followed by addition of a precipitant. Centrifugation was carried out at 4000 rpm for 10 minutes after even mixing. 100 μL of the supernatant was transferred to a new 96-well V-bottom plate. A content of kynurenine was detected through LCMS.
A reference well to which the interferon-γ was added but no compound was added was set to have an inhibition rate of 0%, and a reference well to which no Hela cell was added was set to have an inhibition rate of 100%. Data was analyzed with XLFit 5 to calculate an IC50 value of the compound.

[3] = Test for permeability across MDR1; format: in vitro ADME; conditions: dog, MDCK-MDR1
Experimental: Test for Permeability Across MDR1
A sample for test was dissolved in dimethyl sulfoxide (DMSO) or other suitable solvents, to be prepared into 10 mM stock solution. A suitable internal standard (IS) was dissolved in acetonitrile (ACN) or other organic solvents as a stop solution. Specific information would be described in a research report.
Fenoterol, propranolol, and digoxin acted as low-permeability control, high-permeability control, and P-gp substrate in the present research. The stock solutions of these compounds were prepared with DMSO, stocked at 2-8° C., and valid for use within 3 months.
In the present project, a Hank's balanced salt buffer containing 10 mM HEPES was used as a transport buffer.
MDR1-MDCK II cells were cultivated using α-MEM culture media (α-Minimum Essential Media), with a culture condition of 37±1° C., 5% CO2, and saturated relative humidity. Afterwards, the cells were inoculated into a BD Transwell-96-well plate (BD Gentest), with an inoculation density of 2.3×10^5 cells/cm^2, then the cells were placed in a carbon dioxide incubator to be incubated for 4-7 days, and then used for a transport experiment.
A solution to be used was placed in a 37±1° C. water bath kettle to be pre-incubated for 30 minutes. The donor solution and the receiver solution were respectively added to corresponding sides of wells of cell plate (to an apical side and a basolateral side, 75 μL and 250 μL of samples were added respectively), and experiment of bidirectional transport was started. After the addition of the samples, the cell plate was placed in a 37±1° C., 5% CO2 incubator with saturated relative humidity to be incubated for 150 minutes.
The samples were all centrifuged at 3220 g for 10 minutes after being shaken in a vortex manner. A suitable volume of a supernatant was transferred to a sample analyzing plate. If analysis was not carried out immediately after the plate was sealed, the plate was stored at 2-8° C. The analysis was carried out through a method of LC/MS/MS.
The sample for test, fenoterol control, propranolol control, and digoxin were analyzed in a semiquantitative manner, and specific values of analytes to a peak area of the internal standard were taken as concentration of the controls.

T1 sequence (P14902 whole entry): as above

| SMILES | IC50 [1] | IC50 [2] | Papp A→B at 150 min, 2 µM [3] | Papp B→A at 150 min, 2 µM [3] |
| --- | --- | --- | --- | --- |
| COc1nonc1/C(=N/O)Nc1ccc(F)c(Br)c1 [Compound 0052] | 109 nM | 24.9 nM |  |  |
| CSc1nonc1/C(=N/O)Nc1ccc(F)c(Br)c1 [Compound 0068] | 113 nM | 28.6 nM |  |  |
| CS(=O)(=O)NCCOc1nonc1/C(=N/O)Nc1ccc(F)c(Br)c1 [Compound 0106] | 106 nM | 36.9 nM |  |  |
| NS(=O)(=O)NCCCOc1nonc1/C(=N/O)Nc1ccc(F)c(Br)c1 [Compound 0118] | 55.3 nM | 64.5 nM |  |  |
| CNC(=O)COc1nonc1/C(=N/O)Nc1ccc(F)c(Br)c1 [Compound 0139] | 265 nM | 100 nM |  |  |
| NCCOc1nonc1/C(=N/O)Nc1ccc(F)c(Br)c1 [Compound 0147] | 71.5 nM | 123 nM |  |  |
| O=S(=O)(O)NCCOc1nonc1/C(=N/O)Nc1ccc(F)c(Br)c1 [Compound 0148] | 147 nM | 159 nM |  |  |
| NS(=O)(=O)NCCOc1nonc1C(=NO)Nc1ccc(F)c(C(F)F)c1 [Compound 0151] | 149 nM | 25.2 nM |  |  |
| O=CNCCOc1nonc1/C(=N/O)Nc1ccc(F)c(Br)c1 [Compound 0153] | 153 nM | 82.4 nM |  |  |
| NS(=O)(=O)NCCSc1nonc1/C(=N/O)Nc1ccc(F)c(C(F)(F)F)c1 [Compound 0157] | 160 nM | 13.4 nM |  |  |
| OCCOc1nonc1/C(=N/O)Nc1ccc(F)c(Br)c1 [Compound 0177] | 279 nM | 54.2 nM |  |  |
| NS(=O)(=O)N[C@H]1C[C@@H](Oc2nonc2/C(=N/O)Nc2ccc(F)c(Br)c2)C1 [Compound 0225] | 274 nM | 18.7 nM |  |  |
| CCS(=O)(=O)NCCSc1nonc1/C(=N/O)Nc1ccc(F)c(Br)c1 [Compound 0228] | 101 nM | 3.97 nM | 6.78 ×10⁻⁶ cm/s | 10.5 ×10⁻⁶ cm/s |
| CS(=O)(=O)NCCSc1nonc1/C(=N/O)Nc1ccc(F)c(Br)c1 [Compound 0229] | 80.1 nM | 11.2 nM |  |  |
| CNC(=O)NCCSc1nonc1/C(=N/O)Nc1ccc(F)c(Br)c1 [Compound 0233] | 109 nM | 19.2 nM |  |  |
| O=C(NCCSc1nonc1/C(=N/O)Nc1ccc(F)c(Br)c1)NC1CC1 [Compound 0234] | 77 nM | 9.58 nM |  |  |
| O=C(NCCSc1nonc1/C(=N/O)Nc1ccc(F)c(Br)c1)C1CC1 [Compound 0236] | 129 nM | 55.4 nM |  |  |
| CNC(=O)CSc1nonc1/C(=N/O)Nc1ccc(F)c(Br)c1 [Compound 0237] | 42.3 nM | 8.51 nM |  |  |
| CNC(=O)CCSc1nonc1/C(=N/O)Nc1ccc(F)c(Br)c1 [Compound 0238] | 85.4 nM | 13.9 nM |  |  |
| CNS(=O)(=O)NCCSc1nonc1/C(=N/O)Nc1ccc(F)c(Br)c1 [Compound 0240] | 128 nM | 26.2 nM |  |  |

The remaining lines, values ahead:

| IC50 [1] | IC50 [2] | Papp A→B at 150 min, 2 µM [3] | Papp B→A at 150 min, 2 µM [3] | SMILES |
| --- | --- | --- | --- | --- |
| 74.4 nM | 14.8 nM |  |  | O=CNCCSc1nonc1/C(=N/O)Nc1ccc(F)c(Br)c1 [Compound 0245] |
| 95.7 nM | 17.1 nM |  |  | O=C(CSc1nonc1/C(=N/O)Nc1ccc(F)c(Br)c1)NC1CC1 [Compound 0247] |
| 164 nM | 30.3 nM |  |  | N#CCC(=O)NCCSc1nonc1/C(=N/O)Nc1ccc(F)c(Br)c1 [Compound 0249] |
| 138 nM | 27 nM |  |  | COC(=O)NCCSc1nonc1/C(=N/O)Nc1ccc(F)c(Br)c1 [Compound 0250] |
| 44.3 nM | 7.15 nM |  |  | NC(=O)CSc1nonc1/C(=N/O)Nc1ccc(F)c(Br)c1 [Compound 0251] |
| 74.6 nM | 31.5 nM |  |  | O=C(CSc1nonc1/C(=N/O)Nc1ccc(F)c(Br)c1)NO [Compound 0260] |
| 89.6 nM | 70.8 nM |  |  | NC(=O)CCSc1nonc1/C(=N/O)Nc1ccc(F)c(Br)c1 [Compound 0262] |
| 144 nM | 34.4 nM |  |  | NS(=O)(=O)NCCSc1nonc1/C(=N/O)Nc1ccc(F)c(I)c1 [Compound 0273] |
| 69.4 nM | 12.9 nM |  |  | O=C(NCCSc1nonc1/C(=N/O)Nc1ccc(F)c(Br)c1)C(F)F [Compound 0287] |
| 60.1 nM | 29.5 nM |  |  | O=C(CO)NCCSc1nonc1/C(=N/O)Nc1ccc(F)c(Br)c1 [Compound 0293] |
| 122 nM | 47.2 nM |  |  | NS(=O)(=O)NCCSc1nonc1/C(=N/O)Nc1cccc(I)c1 [Compound 0295] |
| 54.5 nM | 23.5 nM |  |  | NC(=O)NCCSc1nonc1/C(=N/O)Nc1cccc(I)c1 [Compound 0309] |
| 97.3 nM | 12.8 nM |  |  | N#C/N=C(\N)NCCSc1nonc1/C(=N/O)Nc1ccc(F)c(Br)c1 [Compound 0310] |
| 100 nM | 105 nM |  |  | N=C(N)NCCSc1nonc1/C(=N/O)Nc1ccc(F)c(Br)c1 [Compound 0383] |
| 173 nM | 152 nM |  |  | N=C(N)NC(=N)NCCSc1nonc1/C(=N/O)Nc1ccc(F)c(Br)c1 [Compound 0384] |
